Data: patent US9216991B2 (Ares Trading S.A., priority 2012, dated 2015)
Structures can show the parent of a compound that is named as a salt.

Molecular target: T1, IRAK4 (Homo sapiens, UniProt Q9NWZ3)
T1 construct: His (N); TEV cleavage site (N)
T1 sequence (Q9NWZ3 1-460): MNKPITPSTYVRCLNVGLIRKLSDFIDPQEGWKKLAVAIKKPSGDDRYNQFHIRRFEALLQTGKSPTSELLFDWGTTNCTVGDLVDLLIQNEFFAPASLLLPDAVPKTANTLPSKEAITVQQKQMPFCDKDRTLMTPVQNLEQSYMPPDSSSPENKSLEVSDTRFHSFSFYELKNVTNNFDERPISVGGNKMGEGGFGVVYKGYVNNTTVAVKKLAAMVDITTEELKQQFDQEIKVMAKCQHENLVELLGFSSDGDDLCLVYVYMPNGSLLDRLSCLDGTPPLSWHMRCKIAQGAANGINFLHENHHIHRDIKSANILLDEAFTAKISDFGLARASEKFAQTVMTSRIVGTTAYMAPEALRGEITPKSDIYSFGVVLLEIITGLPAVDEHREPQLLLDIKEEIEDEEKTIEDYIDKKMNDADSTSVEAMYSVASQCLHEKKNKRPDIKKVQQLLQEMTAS
Assay: IRAK4 Enzymatic Assay
Type: biochemical
Conditions: His-TEV-IRAK4 20 ng/well, ATP 2 μM, STK1-biotin peptide 300 nM, 3 hours at 30° C., FlashPlate radioactivity
Description: IRAK4 is a human purified recombinant enzyme (His-TEV-IRAK1 (194-712)
IRAK4 hydrolyses ATP, autophosphorylates and phosphorylates a Serine/Threonine generic peptidic substrate (STK: 61ST1BLC from CisBio International based in Bagnols/Cèze FR).
Measurement of IRAK-4 inhibition is performed in streptavidin coated 384 well FlashPlate (PerkinElmer #SMP410A). His-TEV-IRAK4 (20 ng/well), ATP (2 μM, [^33P]ATP 0.25 μCi/well), STK1-biotin peptide (300 nM) and compounds in DMSO (range of concentrations from 20 μM to 1nM) or controls (2% DMSO) are incubated for 3 hours at 30° C. in assay buffer: Hepes pH7.0 50 mM, Fatty acid-free BSA 0.1%, Dithiothreitol DTT 2 mM, MgCl2 10 mM, EGTA 0.5 mM, Tween-20 0.01%, MnCl2 5 mM.
Kinase reaction is stopped by addition of EDTA. Supernatant is discarded, plates are washed three times with 150 mM NaCl and radioactivity is then measured in a Microbeta Trilux reader.

IC50 | SMILES
100 to 1000 nM | CN(C)C(=O)Cn1cc(-c2cnc(-c3cccc(-c4cnn(C)c4)c3)nc2)cn1 [Example 38, N,N-Dimethyl-2-(4-{2-[3-(1-methyl-1H-pyrazol-4-yl)-phenyl]-pyrimidin-5-yl}-pyrazol-1-yl)-acetamide]
< 100 nM | Cn1cc(-c2cccc(-c3ncc(-c4cnn(C5CCN(C6CCOCC6)CC5)c4)cn3)c2)cn1 [Example 39, 2-[3-(1-Methyl-1H-pyrazol-4-yl)-phenyl]-5-{1-[1-(tetrahydro-pyran-4-yl)-piperidin-4-yl]-1H-pyrazol-4-yl}-pyrimidine]
100 to 1000 nM | COC1CN(C(=O)Cn2cc(-c3cnc(-c4cccc(-c5cnn(C)c5)c4)nc3)cn2)C1 [Example 40, 1-(3-Methoxy-azetidin-1-yl)-2-(4-{2-[3-(1-methyl-1H-pyrazol-4-yl)-phenyl]-pyrimidin-5-yl}-pyrazol-1-yl)-ethanone]
100 to 1000 nM | Cn1cc(-c2cccc(-c3ncc(-c4cnn(CC5CNCCO5)c4)cn3)c2)cn1 (stereo not shown) [Example 41, 2-(4-{2-[3-(1-Methyl-1H-pyrazol-4-yl)-phenyl]-pyrimidin-5-yl}-pyrazol-1-ylmethyl)-morpholine hydrochloride]
1000 to 5000 nM | NCCCn1cc(-c2cccc(-c3ncc(-c4cnn(CC(=O)N5CCCC5)c4)cn3)c2)cn1 [Example 42, 2-[4-(2-{3-[1-(3-Amino-propyl)-1H-pyrazol-4-yl]-phenyl}-pyrimidin-5-yl)-pyrazol-1-yl]-1-pyrrolidin-1-yl-ethanone hydrochloride]
1000 to 5000 nM | O=C(Cn1cc(-c2cnc(-c3cccc(-c4ccncc4)c3)nc2)cn1)N1CCCC1 [Example 43, 2-{4-[2-(3-Pyridin-4-yl-phenyl)-pyrimidin-5-yl]-pyrazol-1-yl}-1-pyrrolidin-1-yl-ethanone]
100 to 1000 nM | CC(=O)Cn1cc(-c2cnc(-c3cccc(-c4cnn(C)c4)c3)nc2)cn1 [Example 44, 1-(4-{2-[3-(1-Methyl-1H-pyrazol-4-yl)-phenyl]-pyrimidin-5-yl}-pyrazol-1-yl)-propan-2-one]
100 to 1000 nM | Cn1cc(-c2cccc(-c3ncc(-c4cnn(CC5CCOC5)c4)cn3)c2)cn1 (stereo not shown) [Example 45, 2-[3-(1-Methyl-1H-pyrazol-4-yl)-phenyl]-5-[1-(tetrahydro-furan-3-ylmethyl)-1H-pyrazol-4-yl]-pyrimidine]
1000 to 5000 nM | Cn1cc(-c2cccc(-c3ncc(-c4cnn(Cc5ncco5)c4)cn3)c2)cn1 [Example 46, 2-[3-(1-Methyl-1H-pyrazol-4-yl)-phenyl]-5-(1-oxazol-2-ylmethyl-1H-pyrazol-4-yl)-pyrimidine]
100 to 1000 nM | Cn1cc(-c2cccc(-c3ncc(-c4cnn(CCc5ccccn5)c4)cn3)c2)cn1 [Example 47, 2-[3-(1-Methyl-1H-pyrazol-4-yl)-phenyl]-5-[1-(2-pyridin-2-yl-ethyl)-1H-pyrazol-4-yl]-pyrimidine]
1000 to 5000 nM | Cn1cc(-c2cccc(-c3ncc(-c4cnn(C5CCNCC5)c4)cn3)c2F)cn1 [Example 48, 2-[2-Fluoro-3-(1-methyl-1H-pyrazol-4-yl)-phenyl]-5-(1-piperidin-4-yl-1H-pyrazol-4-yl)-pyrimidine Formate]
1000 to 5000 nM | Cn1cc(-c2cccc(-c3ncc(-c4cnn(CC(N)=O)c4)cn3)c2)cn1 [Example 49, 2-(4-{2-[3-(1-Methyl-1H-pyrazol-4-yl)-phenyl]-pyrimidin-5-yl}-pyrazol-1-yl)-acetamide]
1000 to 5000 nM | NCCn1cc(-c2cccc(-c3ncc(-c4cnn(CC(=O)N5CCCC5)c4)cn3)c2)cn1 [Example 50, 2-[4-(2-{3-[1-(2-Amino-ethyl)-1H-pyrazol-4-yl]-phenyl}-pyrimidin-5-yl)-pyrazol-1-yl]-1-pyrrolidin-1-yl-ethanone hydrochloride]
100 to 1000 nM | CN1CCN(C(=O)Cn2cc(-c3cnc(-c4cccc(-c5cnn(C)c5)c4)nc3)cn2)CC1 [Example 51, 1-(4-Methyl-piperazin-1-yl)-2-(4-{2-[3-(1-methyl-1H-pyrazol-4-yl)-phenyl]-pyrimidin-5-yl}-pyrazol-1-yl)-ethanone hydrochloride]
< 100 nM | Cn1cc(-c2cccc(-c3ncc(-c4cnn(CCc5ccncc5)c4)cn3)c2)cn1 [Example 53, 2-[3-(1-Methyl-1H-pyrazol-4-yl)-phenyl]-5-[1-(2-pyridin-4-yl-ethyl)-1H-pyrazol-4-yl]-pyrimidine]
100 to 1000 nM | Cn1cc(-c2cccc(-c3ncc(-c4cnn(CC(=O)NC5CCOCC5)c4)cn3)c2)cn1 [Example 54, 2-(4-{2-[3-(1-Methyl-1H-pyrazol-4-yl)-phenyl]-pyrimidin-5-yl}-pyrazol-1-yl)-N-(tetrahydro-pyran-4-yl)-acetamide]

IC50 | SMILES
100 to 1000 nM | Cn1cc(-c2cccc(-c3ncc(-c4cnn(CC(=O)N5CC6(COC6)C5)c4)cn3)c2)cn1 [Example 55, 2-(4-{2-[3-(1-Methyl-1H-pyrazol-4-yl)-phenyl]-pyrimidin-5-yl}-pyrazol-1-yl)-1-(2-oxa-6-aza-spiro[3.3]hept-6-yl)-ethanone]
100 to 1000 nM | Cc1ncc(-c2cccc(-c3ncc(-c4cnn(CC(=O)N5CCCC5)c4)cn3)c2)s1 [Example 56, 2-(4-{2-[3-(2-Methyl-thiazol-5-yl)-phenyl]-pyrimidin-5-yl}-pyrazol-1-yl)-1-pyrrolidin-1-yl-ethanone]
100 to 1000 nM | Cn1cc(-c2cccc(-c3ncc(-c4cnn(CCN5CCCCC5)c4)cn3)c2)cn1 [Example 57, 2-[3-(1-Methyl-1H-pyrazol-4-yl)-phenyl]-5-[1-(2-piperidin-1-yl-ethyl)-1H-pyrazol-4-yl]-pyrimidine]
100 to 1000 nM | Cn1cc(-c2cccc(-c3ncc(-c4cnn(CCN5CCCC5)c4)cn3)c2)cn1 [Example 58, 2-[3-(1-Methyl-1H-pyrazol-4-yl)-phenyl]-5-[1-(2-pyrrolidin-1-yl-ethyl)-1H-pyrazol-4-yl]-pyrimidine]
1000 to 5000 nM | O=C(Cn1cc(-c2cnc(-c3cccc(-c4cnn(CCO)c4)c3)nc2)cn1)N1CCCC1 [Example 59, 2-[4-(2-{3-[1-(2-Hydroxy-ethyl)-1H-pyrazol-4-yl]-phenyl}-pyrimidin-5-yl)-pyrazol-1-yl]-1-pyrrolidin-1-yl-ethanone]
1000 to 5000 nM | CCC(CO)NC(=O)Cn1cc(-c2cnc(-c3cccc(-c4cnn(C)c4)c3)nc2)cn1 (stereo not shown) [Example 60, N-(1-Hydroxymethyl-propyl)-2-(4-{2-[3-(1-methyl-1H-pyrazol-4-yl)-phenyl]-pyrimidin-5-yl}-pyrazol-1-yl)-acetamide]
< 100 nM | CN1[C@@H]2CC[C@H]1C[C@H](n1cc(-c3cnc(-c4cccc(-c5cnn(C)c5)c4)nc3)cn1)C2 [Example 61, (3-exo)-8-Methyl-3-(4-{2-[3-(1-methyl-1H-pyrazol-4-yl)-phenyl]-pyrimidin-5-yl}-pyrazol-1-yl)-8-aza-bicyclo[3.2.1]octane]
100 to 1000 nM | Cn1cc(-c2cccc(-c3ncc(-c4cnn(C5CCC(C(=O)O)CC5)c4)cn3)c2)cn1 (stereo not shown) [Example 62, 4-(4-{2-[3-(1-Methyl-1H-pyrazol-4-yl)-phenyl]-pyrimidin-5-yl}-pyrazol-1-yl)-cyclohexanecarboxylic acid]
100 to 1000 nM | COCC(C)NC(=O)Cn1cc(-c2cnc(-c3cccc(-c4cnn(C)c4)c3)nc2)cn1 (stereo not shown) [Example 63]
100 to 1000 nM | CN1CCCC1CCn1cc(-c2cnc(-c3cccc(-c4cnn(C)c4)c3)nc2)cn1 (stereo not shown) [Example 64, 2-[3-(1-Methyl-1H-pyrazol-4-yl)-phenyl]-5-{1-[2-(1-methyl-pyrrolidin-2-yl)-ethyl]-1H-pyrazol-4-yl}-pyrimidine]
100 to 1000 nM | Cn1cc(-c2cccc(-c3ncc(-c4cnn(CC5CCNC5)c4)cn3)c2)cn1 (stereo not shown) [Example 65, 2-[3-(1-Methyl-1H-pyrazol-4-yl)-phenyl]-5-(1-pyrrolidin-3-ylmethyl-1H-pyrazol-4-yl)-pyrimidine hydrochloride]
100 to 1000 nM | Cn1cc(-c2cccc(-c3ncc(-c4cnn(CC5CNC5)c4)cn3)c2)cn1 [Example 66, 5-(1-Azetidin-3-ylmethyl-1H-pyrazol-4-yl)-2-[3-(1-methyl-1H-pyrazol-4-yl)-phenyl]-pyrimidine hydrochloride]
100 to 1000 nM | Cn1cc(-c2cccc(-c3ncc(-c4cnn(CC(F)F)c4)cn3)c2)cn1 [Example 67, 5-[1-(2,2-Difluoro-ethyl)-1H-pyrazol-4-yl]-2-[3-(1-methyl-1H-pyrazol-4-yl)-phenyl]-pyrimidine]
1000 to 5000 nM | O=C(Cn1cc(-c2cnc(-c3cccc(-c4ccncc4)c3)nc2)cn1)N1CCOCC1 [Example 68, 1-Morpholin-4-yl-2-{4-[2-(3-pyridin-4-yl-phenyl)-pyrimidin-5-yl]-pyrazol-1-yl}-ethanone]
100 to 1000 nM | Cn1cc(-c2cccc(-c3ncc(-c4cnn(CCC5CCOCC5)c4)cn3)c2)cn1 [Example 69, 2-[3-(1-Methyl-1H-pyrazol-4-yl)-phenyl]-5-{1-[2-(tetrahydro-pyran-4-yl)-ethyl]-1H-pyrazol-4-yl}-pyrimidine]
